# Data as given in patent US7179921B2, “Indoline and tetrahydro-quinolines as prodrugs for tumour treatment” (School of Pharmacy, University of London, priority 2001, dated 2007).
# Marks after values point to notes of the source that are not given here.
# System: Chinese Hamster Ovary (CHO) cell
# Test: Cell culture based cytotoxicity measurement (MTT) with and without rat liver microsomal activation
# Conditions: for IC50: Cricetulus griseus, CHO, cells incubated 24 hours, MTT, mean±sd, three experiments
# Procedure: Test compound activation by CYP enzymes was carried out using NADPH supplemented rat liver microsomes. Incubation mixtures comprised microsomal protein (1 mg/ml), reduced-nicotinamide adenine dinucleotide phosphate (NADPH,10 mM) and phosphate buffer (pH7.4, 100 mM). Test compound (0.01–100 μM final concentration) in DMSO (20 μl ) was added to the microsomal incubation mixtures (0.5 ml) and incubated for 60 min at 37C. Control incubates contained test compound and microsomal incubation mixture terminated at 0 time. All incubations were terminated by addition of an equal volume of ice-cold acetonitrile and microfuged for 3 min. Aliquots of the supernatant were added to cells in culture.
# Chinese Hamster Ovary (CHO) cell were grown in MEM supplemented with 10% dialysed FBS and G418 (400 μg/ml). All cells were seeded at an initial density of 1000 cells/well in 96-well-plates, incubation at 37° C. for 24 hours. Aliquots (0.1 ml) of the test compound/microsomal/acetonitrile supernatnant was then added to the CHO cells. Cells were then incubated for 24 hours at 37° C., 5% CO2. After this time period MTT (50 μl; 2 mg/ml stock solution) was added to each well and cells were incubated for a further 4 hours. During this time period MTT, a hydrogen acceptor tetrazolium salt, is reduced to formazan dye by mitochondrial dehydrogenase of viable cells. The media was aspirated from cells and DMSO (100 μl/well) added to solubilise the is coloured formazan dye. Absorbance of the formazan dye in the 96-well-plates was then determined at 550 nm. The effect of microsomal activation by the test compound on the arrest of CHO cell growth could be determined by comparing the IC50 (concentration that inhibited cell growth by 50%) with and without microsomal incubation.
# Effect of compound 3.5 and its metabolism (activation) product on the survival of Chinese hamster ovary cells in culture. Cells were incubated for 24 hours with supernatants from reaction mixtures of compound 3.5 with NADPH fortified rat liver microsomes. […] Values are expressed as the mean±sd for three experiments. […]
structure (smiles),measurement,setting,value
"COc1ccc2[nH]c(C(=O)N3CC(CCl)c4ccccc43)cc2c1 (stereo not drawn) [compound 3.5, 3-(Chloromethyl)-1--[(5-methoxyindol-2-yl)carbonyl]indoline]","AF = activity factor, ratio of IC50 cytotoxicity values obtained for ± compound activation","CHO cells, IC50 −activation / IC50 +activation",42.4*
same,IC50,control incubate terminated at 0 time (no microsomal activation),5510 ± 230 nM
same,IC50,supernatant after 60 min incubation with NADPH supplemented rat liver microsomes,130 ± 30 nM
